Assay results: patent publication US11299487B2, “Compounds and compositions as modulators of TLR signaling” (Neuropore Therapies, Inc., priority 2019, dated 2022)

Key:
human TLR2 [1] = target: T1, human TLR2 (Homo sapiens, UniProt O60603); assay: HEK-Blue hTLR2 antagonism assay (SEAP reporter) with agonist Pam2CSK4 (TLR2/6 agonist); type: cell-based; details: Table B; HEK-Blue hTLR2 cells, ~3×EC50 Pam2CSK4, 18 h, SEAP OD 655 nm, 8-point dilutions
T1 construct: host or cells: HEK-Blue hTLR2 (HEK-293)
Method: (§1) Synthetic diacylated lipoprotein (Pam2CSK4, TLR2/6 agonist) and synthetic triacylated lipoprotein (Pam3CSK4, TLR1/2 agonist) were obtained from InvivoGen and were dissolved in endotoxin-free water to a concentration 1 mg/mL, vortexed until complete solubilization, and stored in aliquots at −20° C. Prior to addition to cells, an aliquot of the dissolved ligand was vortexed shortly and then was diluted in medium to 25 ng/mL Pam2CSK4 or 1000 ng/mL Pam3CSK4.
(§2) Test compounds were solubilized fresh to 10-20 mM stocks in DMSO and sonicated for 5-10 minutes in a water bath sonicator. Serial dilutions were prepared in DMSO, and then diluted in medium. The final concentration of DMSO used in the assay was 1%.
(§3) HEK-Blue hTLR2 reporter cells (InvivoGen) are HEK-293 cells stably expressing both the human TLR2 gene and a secreted embryonic alkaline phosphatase (SEAP) reporter construct downstream of NFκB promotor sites. HEK-Blue hTLR2 reporters were cultured according to manufacturer's protocol using Dulbecco's Modified Eagle Medium (DMEM; Gibco) containing 1× GlutaMax (Gibco), 10% heat-inactivated Fetal Bovine Serum (Gibco), Pen-Strep (50 U/mL penicillin, 50 μg/mL streptomycin, Gibco), 100 μg/mL Normocin (InvivoGen), and the selective antibiotic, 1×HEK-Blue Selection (InvivoGen). Quanti-Blue reagent (InvivoGen) for detection and quantification of secreted alkaline phosphatase was dissolved in 100 mL of endotoxin-free water, warmed to 37° C. for 30 minutes and then filtered using a 0.2 μm membrane.
(§4) On day 1, 50 μL of each test compound dilution in duplicates or a vehicle control was added to each well of a 96-well plate followed by addition of 150 μL of HEK-Blue hTLR2 cell suspension (1×10^5 cells/well) and incubated at 37° C./5% CO2 for 2 h. Next, 50 μL of an approximate 3×EC50 concentration of each agonist (Pam2CSK4 or Pam3CSK4) was added to the wells containing test compounds or the vehicle control. The plates were then incubated at 37° C./5% CO2 for 18 h. For each assay run, non-treated HEK-Blue hTLR2 cells were treated with serial dilutions of agonists to determine EC50 values for the respective run.
(§5) On day 2, secreted alkaline phosphatase (SEAP) activity was detected in cell culture supernatants. In brief, 20 μL was collected from each well and transferred to a 96-well plate. Next, 200 μL of Quanti-Blue detection reagent was added to each well. Plates were incubated at room temperature for 15 min. and SEAP activity was assessed by spectrophotometer OD reading at 655 nm. […] IC50 values were calculated based on 8-point dilutions for each compound.

human TLR2 [2] = target: T1, human TLR2; assay: HEK-Blue hTLR2 antagonism assay (SEAP reporter) with agonist Pam3CSK4 (TLR1/2 agonist); type: cell-based; details: Table B; HEK-Blue hTLR2 cells, ~3×EC50 Pam3CSK4, 18 h, SEAP OD 655 nm, 8-point dilutions
Method: as §1, §2, §3, §4, §5

T1 sequence (O60603 21-784): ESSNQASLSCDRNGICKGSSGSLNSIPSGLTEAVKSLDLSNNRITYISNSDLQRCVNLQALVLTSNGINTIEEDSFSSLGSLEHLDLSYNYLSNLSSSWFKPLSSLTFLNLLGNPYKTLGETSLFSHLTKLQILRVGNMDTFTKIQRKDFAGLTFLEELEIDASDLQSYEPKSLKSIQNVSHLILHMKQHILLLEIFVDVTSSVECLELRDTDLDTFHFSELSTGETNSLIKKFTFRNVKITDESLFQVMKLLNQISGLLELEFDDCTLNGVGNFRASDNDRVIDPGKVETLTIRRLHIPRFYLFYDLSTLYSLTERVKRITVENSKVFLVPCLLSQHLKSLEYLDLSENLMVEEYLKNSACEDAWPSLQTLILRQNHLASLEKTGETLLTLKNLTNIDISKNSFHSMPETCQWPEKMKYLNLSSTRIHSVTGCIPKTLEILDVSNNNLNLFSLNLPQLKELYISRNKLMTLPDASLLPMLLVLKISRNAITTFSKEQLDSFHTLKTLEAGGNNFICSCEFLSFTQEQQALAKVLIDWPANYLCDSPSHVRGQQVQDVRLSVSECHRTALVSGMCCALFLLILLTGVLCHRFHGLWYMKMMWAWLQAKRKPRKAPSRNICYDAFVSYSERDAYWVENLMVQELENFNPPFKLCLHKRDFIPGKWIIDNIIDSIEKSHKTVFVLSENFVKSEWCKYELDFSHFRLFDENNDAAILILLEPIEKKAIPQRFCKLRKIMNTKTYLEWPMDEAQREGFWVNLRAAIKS

Structure (SMILES)	IC50 (human TLR2 [1]) [µM]	IC50 (human TLR2 [2]) [µM]
O=Cc1cc(C(=O)Nc2ccc(N3CCCN(C4CC4)CC3)cc2)cc(F)c1O [Compound B70, N-(4-(4-cyclopropyl-1,4-diazepan-1-yl)phenyl)-3-fluoro-5-formyl-4-hydroxybenzamide]	11.5	6.5
O=Cc1cc(C(=O)Nc2cccc(N3CCCCC3)c2)cc(F)c1O [Compound B72, 3-fluoro-5-formyl-4-hydroxy-N-(3-(piperidin-1-yl)phenyl)benzamide]	4.6	2.4
O=Cc1cc(C(=O)Nc2ccc(N3CC4(CC4)CC3=O)cc2)cc(F)c1O [Compound B78, 3-fluoro-5-formyl-4-hydroxy-N-(4-(6-oxo-5-azaspiro[2.4]heptan-5-yl)phenyl)benzamide]	34.4	18.5
O=Cc1cc(C(=O)Nc2ccc(N3CCC4(CC4)C3)cc2)cc(F)c1O [Compound B79, N-(4-(5-azaspiro[2.4]heptan-5-yl)phenyl)-3-fluoro-5-formyl-4-hydroxybenzamide]	4.1	1.4
O=Cc1cc(C#Cc2ccc(C(=O)NC3CC3)cc2)cc(F)c1O [Compound B80, N-cyclopropyl-4-((3-fluoro-5-formyl-4-hydroxyphenyl)ethynyl)benzamide]	15.5	35.9
O=Cc1cc(C(=O)Nc2ccc(N3Cc4ccccc4C3)cc2)cc(F)c1O [Compound B81, 3-fluoro-5-formyl-4-hydroxy-N-(4-(isoindolin-2-yl)phenyl)benzamide]	1	0.5
O=Cc1cc(C(=O)Nc2ccc(N3CCc4ccccc4C3)cc2)cc(F)c1O [Compound B82, N-(4-(3,4-dihydroisoquinolin-2(1H)-yl)phenyl)-3-fluoro-5-formyl-4-hydroxybenzamide]	1.2	0.7
O=Cc1cc(C(=O)Nc2ccc(N3CCN(c4ccccc4)CC3)cc2)cc(F)c1O [Compound B83, 3-fluoro-5-formyl-4-hydroxy-N-(4-(4-phenylpiperazin-1-yl)phenyl)benzamide]	1	0.3
O=Cc1cc(C(=O)Nc2ccc(N3CCC(N4CCCC4)CC3)cc2)cc(F)c1O [Compound B84, 3-fluoro-5-formyl-4-hydroxy-N-(4-(4-(pyrrolidin-1-yl)piperidin-1-yl)phenyl)benzamide]	33.9	14.3
O=Cc1cc(C(=O)Nc2ccc(N3Cc4ccccc4C3)nc2)cc(F)c1O [Compound B86, 3-fluoro-5-formyl-4-hydroxy-N-(6-(isoindolin-2-yl)pyridin-3-yl)benzamide]	4.3	1.8
O=Cc1cc(C(=O)Nc2ccc(N3CCOc4ccccc43)cc2)cc(F)c1O [Compound B90, N-(4-(2,3-dihydro-4H-benzo[b][1,4]oxazin-4-yl)phenyl)-3-fluoro-5-formyl-4-hydroxybenzamide]	2.9	1.9
O=Cc1cc(C(=O)Nc2ccc(N3CCCC3)c(C(F)(F)F)c2)cc(F)c1O [Compound B91, 3-fluoro-5-formyl-4-hydroxy-N-(4-(pyrrolidin-1-yl)-3-(trifluoromethyl)phenyl) benzamide]	2.2	1.6

Further lines, results first:

IC50 (human TLR2 [1]) [µM]	IC50 (human TLR2 [2]) [µM]	Structure (SMILES)
1	0.9	CN(CC(C)(C)C)c1ccc(NC(=O)c2cc(F)c(O)c(C=O)c2)cc1 [Compound B94, 3-fluoro-5-formyl-4-hydroxy-N-(4-(methyl(neopentyl)amino)phenyl)benzamide]
3.7	2.8	O=Cc1cc(C(=O)Nc2ccc(N3C4CCC3CC4)cc2)cc(F)c1O [Compound B95, N-(4-(7-azabicyclo[2.2.1]heptan-7-yl)phenyl)-3-fluoro-5-formyl-4-hydroxybenzamide]
1.4	1.1	O=Cc1cc(C(=O)Nc2ccc(N3C4CCCC3CC4)cc2)cc(F)c1O [Compound B96, N-(4-(8-azabicyclo[3.2.1]octan-8-yl)phenyl)-3-fluoro-5-formyl-4-hydroxybenzamide]
0.6	0.5	CC1(C)CN(c2ccc(NC(=O)c3cc(F)c(O)c(C=O)c3)cn2)c2ccc(F)cc21 [Compound B99, 3-fluoro-N-(6-(5-fluoro-3,3-dimethylindolin-1-yl)pyridin-3-yl)-5-formyl-4-hydroxybenzamide]
2	1	O=Cc1cc(C(=O)Nc2ccc(N3CCN(c4ccccc4)CC3)nc2)cc(F)c1O [Compound B102, 3-fluoro-5-formyl-4-hydroxy-N-(6-(4-phenylpiperazin-1-yl)pyridin-3-yl)benzamide]
1.7	1	O=Cc1cc(C(=O)Nc2ccc(N3C[C@H]4CCC[C@H]4C3)nc2)cc(F)c1O [Compound B103, 3-fluoro-5-formyl-N-(6-((3aR,6aS)-hexahydrocyclopenta[c]pyrrol-2(1H)-yl)pyridin-3-yl)-4-hydroxybenzamide]
